From PMC7155171, “Probing the Open Global Health Chemical Diversity Library for Multistage-Active Starting Points for Next-Generation Antimalarials” (ACS Infectious Diseases, 2020)
pIC50: −log10 of the molar value. Where two headings read alike, the source gives them in different places.

Legend:
[1] = tested on: P. falciparum Dd2 (PfLuc) line expressing firefly luciferase, asexual blood stage; test: microbe, parasite or virus in culture; assay type: cell-based, Plasmodium falciparum; conditions: Plasmodium falciparum; for IC50: DD2, read-out: CDD P. falciparum Luciferase ABS 11-pt Reconfirmation Dose Response (48hr): IC50 (μM)
P. falciparum Dd2 = test: SYBR green I asexual blood stage proliferation assay (96 h); assay type: cell-based, Plasmodium falciparum; conditions: Plasmodium falciparum, DD2, 11-pt dose response, 96hr
[2] = DD2, read-out: P. falciparum Luciferase ABS 11-pt Reconfirmation Dose Response (48hr): IC50, 11-pt dose response, 48hr
[3] = DD2, 8-pt dose response, 96hr, read-out: P. falciparum Luciferase ABS 8-pt Reconfirmation Dose Response (96hr): IC50
[4] = DD2, 11-pt dose response, 48hr, read-out: P. falciparum Luciferase ABS 11-pt Reconfirmation Dose Response (48hr): Maximum inhibition (%)
[5] = DD2, 11-pt dose response, 96hr, read-out: P. falciparum Luciferase ABS 11-pt Reconfirmation Dose Response (96hr): IC50
[6] = DD2, 11-pt dose response, 96hr, read-out: P. falciparum Luciferase ABS 11-pt Reconfirmation Dose Response (96hr): Maximum inhibition (%)
[7] = read-out: P. falciparum Sybr Green I ABS 11-pt Reconfirmation Dose Response (96hr): IC50
[8] = read-out: P. falciparum Sybr Green I ABS 11-pt Reconfirmation Dose Response (96hr): Maximum inhibition (%)
[9] = DD2, 8-pt dose response, 96hr, read-out: CDD P. falciparum Luciferase ABS 8-pt Reconfirmation Dose Response (96hr): IC50
[10] = DD2, 8-pt dose response, 96hr, read-out: CDD P. falciparum Luciferase ABS 8-pt Reconfirmation Dose Response (96hr): Maximum inhibition (%)
[11] = DD2, 11-pt dose response, 48hr, read-out: CDD P. falciparum Luciferase ABS 11-pt Reconfirmation Dose Response (48hr): Maximum inhibition (%)
[12] = DD2, 11-pt dose response, 96hr, read-out: CDD P. falciparum Luciferase ABS 11-pt Reconfirmation Dose Response (96hr): IC50
[13] = DD2, 11-pt dose response, 96hr, read-out: CDD P. falciparum Luciferase ABS 11-pt Reconfirmation Dose Response (96hr): Maximum inhibition (%)
[14] = Sybr Green I, read-out: CDD P. falciparum Sybr Green I ABS 11-pt Reconfirmation Dose Response (96hr): IC50
[15] = Sybr Green I, read-out: CDD P. falciparum Sybr Green I ABS 11-pt Reconfirmation Dose Response (96hr): Maximum inhibition (%)
[16] = DD2, 8-pt dose response, 96hr, read-out: P. falciparum Luciferase ABS 8-pt Reconfirmation Dose Response (96hr): Maximum inhibition (%)

SMILES	pIC50 [1, 2]	pIC50 [1, 3]	Emax [1, 4]	pIC50 [1, 5]	Emax [1, 6]	pIC50 (P. falciparum Dd2; [7])	Emax (P. falciparum Dd2; [8])	IC50 ([1]; 11-pt dose response, 48hr)	pIC50 [1, 9]	Emax [1, 10]	Emax [1, 11]	pIC50 [1, 12]	Emax [1, 13]	pIC50 (P. falciparum Dd2; [14])	Emax (P. falciparum Dd2; [15])	Emax [1, 16]	pIC50 ([1]; 96 h incubation, Dd2 luciferase, read-out: 96 hour Pfluc IC50)
Cc1ccc(CN(CCN(C)C)Cc2c(C)nc3sccn23)o1 [DDD01056924]	< 4.90	5.74	65.3%	5.61	88.8%	< 5.38	52.1%										
Cc1cccc(C)c1Nc1noc2c1CN(C(=O)c1ccn(C)n1)CC2 [DDD01057030]								0.885 µM	6.59	96.3%	97.1%	6.16	99.6%	6.04	95.5%		
CCCNc1cc(-c2c[nH]nc2C2CCN(C(=O)C3CCC3)C2)ccn1 (stereo not drawn) [DDD01057089]								4.01 µM	6.51	96.1%	86.1%	5.79	97.9%	5.87	61.5%		
NC1CCc2nc(-c3cccnc3)nc(Nc3ccc(F)cc3)c2C1 (stereo not drawn) [DDD01057099]								3.56 µM	6.62	96.1%	98.4%	6.00	100%	5.88	100%		
Fc1ccccc1Cn1c(C2CCNCC2)cc2cccnc21 [DDD01057236]								3.02 µM	6.39	92.4%	64.7%	5.85		5.15	70.6%		
COc1ccccc1C1(NCc2c(C)nc3c(C)cccn23)CCCC1 [DDD01057239]								4.35 µM	6.15		60.6%	5.81	92%	< 5.86	68.9%		
CC(C)Nc1cc(-c2c[nH]nc2C2CCN(C(=O)C3CC3)C2)ccn1 (stereo not drawn) [DDD01057305]								5.35 µM	6.54	95.7%		5.76	98.4%	5.09	76.9%		
CC(C)CNc1cc(-c2c[nH]nc2C2CCN(C(=O)C3CC3)C2)ccn1 (stereo not drawn) [DDD01057306]								5.71 µM	6.55	95.6%		5.71	96.6%	5.30	50.9%		
CC(C)Nc1cc(-c2c[nH]nc2C2CCN(C(=O)C3CCC3)C2)ccn1 (stereo not drawn) [DDD01057307]								4.05 µM	6.64	94.3%		5.85	95.8%	5.13	72%		
COc1cc(C(=O)NCC2(N(C)C)CCN(C)CC2)c2ccccc2n1 [DDD01057375]	< 4.90	> 8.63	53%		87.3%	< 5.86	63.6%									88.6%	8.15
Fc1cccc(F)c1Cn1c(C2CCNCC2)cc2cccnc21 [DDD01057378]								1.51 µM	6.44	91.4%	76%	6.13	92.1%	6.24	68.3%		
Nc1cc(-c2c[nH]nc2C2CCCN2CCCc2ccccc2)ccn1 (stereo not drawn) [DDD01057437]								3.06 µM	6.23	96.2%	63%	6.17	100%	5.65	96.1%		
Cc1nc(-c2ccc(F)c(F)c2)cc(C2CCNCC2)n1 [DDD01058356]								> 12.5 µM	6.08	88.2%	44.3%	5.69	86.7%	5.68	68.9%		
OC1(c2ccc(F)cc2)CCN(Cc2ccccc2N2CCCC2)CC1 [DDD01058479]	5.49	5.86	76.5%	5.71	94.3%	5.23	82.4%									88.9%	
Clc1cccc(C[C@@H]2NCCC[C@@H]2Nc2ccccc2)c1 [DDD01058682]	5.74	5.92	99.1%	6.07	101%	5.47	93.6%									94.7%	
